Assay results: publication PMC7979765, “trans-Translation inhibitors bind to a novel site on the ribosome and clear Neisseria gonorrhoeae in vivo” (Nature Communications, 2021)
In brackets after ≈: the same amount, converted by molar mass. Several values for one entry are separate records, joined by “and”; a condition that tells them apart may be missing. Equal values may be shown once. Read-outs that look alike come from different tables or passages of the source.

Key:
Neisseria gonorrhoeae = assay: MIC, microbroth dilution, G77L medium; type: cell-based
[1] = Serum protein binding, murine; type: in vitro ADME, mouse; conditions: Eurofins; for fraction unbound: mouse, serum, read-out: Serum binding (% bound) Murine (converted)
Protocol: Serum protein binding was determined using an equilibrium dialysis method as described. The amount of compound in each chamber (buffer and serum) was measured using methods for reverse-phase liquid chromatography/mass spectroscopy methods that were customized for each compound.

Solubility (formulated) = type: physicochemical
[2] = Aqueous solubility (nephelometric); type: physicochemical; conditions: aqueous solution (buffer not named); single replicates

## O=C(Nc1nnc(-c2ccc(F)cc2)o1)N1CCc2ccccc2C1 [MBX-4132]
Neisseria gonorrhoeae; Neisseria gonorrhoeae, strain CDC-0188, CIP, PEN
  MIC: 0.17 µg/mL (≈ 0.502 µM)
Neisseria gonorrhoeae; Neisseria gonorrhoeae, strain CDC-0188, replicates 1-3
  MIC: 0.169 µg/mL (≈ 0.499 µM)
Neisseria gonorrhoeae; Neisseria gonorrhoeae, strain CDC-0189, CIP, PEN, TET
  MIC: 0.13 µg/mL (≈ 0.384 µM)
Neisseria gonorrhoeae; Neisseria gonorrhoeae, strain CDC-0189, replicates 1-3
  MIC: 0.169 µg/mL (≈ 0.499 µM)
Neisseria gonorrhoeae; Neisseria gonorrhoeae, strain CDC-0190, CIP, PEN, TET
  MIC: 0.17 µg/mL (≈ 0.502 µM)
Neisseria gonorrhoeae; Neisseria gonorrhoeae, strain CDC-0190, replicates 1-3
  MIC: 0.169 µg/mL (≈ 0.499 µM)
Neisseria gonorrhoeae; Neisseria gonorrhoeae, strain HO41, PEN, TET, CFM, CRO, LVX
  MIC: 0.17 µg/mL (≈ 0.502 µM)
Neisseria gonorrhoeae; Neisseria gonorrhoeae, strain HO41, replicates 1-3
  MIC: 0.169 µg/mL (≈ 0.499 µM)
Neisseria gonorrhoeae; Neisseria gonorrhoeae, strain MMX 6744, broth dilution by Micromyx
  MIC: 0.27 µg/mL (≈ 0.798 µM)
Neisseria gonorrhoeae; Neisseria gonorrhoeae, strain MMX 6746, CIP, by Micromyx
  MIC: 0.14 µg/mL (≈ 0.414 µM)
Neisseria gonorrhoeae; Neisseria gonorrhoeae, strain MMX 6752, TET, by Micromyx
  MIC: 0.27 µg/mL (≈ 0.798 µM)
Neisseria gonorrhoeae; Neisseria gonorrhoeae, strain MMX 6753, by Micromyx
  MIC: 0.14 µg/mL (≈ 0.414 µM)
Neisseria gonorrhoeae; Neisseria gonorrhoeae, strain MMX 6757, by Micromyx
  MIC: 0.07 µg/mL (≈ 0.207 µM)
Neisseria gonorrhoeae; Neisseria gonorrhoeae, strain MMX 6758, by Micromyx
  MIC: 0.27 µg/mL (≈ 0.798 µM)
Neisseria gonorrhoeae; Neisseria gonorrhoeae, strain MMX 6762, by Micromyx
  MIC: 0.27 µg/mL (≈ 0.798 µM)
Neisseria gonorrhoeae; Neisseria gonorrhoeae, strain MMX 6767, by Micromyx
  MIC: 0.14 µg/mL (≈ 0.414 µM)
Neisseria gonorrhoeae; Neisseria gonorrhoeae, strain MMX 6771, TET, by Micromyx
  MIC: 0.14 µg/mL (≈ 0.414 µM)
Neisseria gonorrhoeae; Neisseria gonorrhoeae, strain MMX 6793, CIP, by Micromyx
  MIC: 0.14 µg/mL (≈ 0.414 µM)
Neisseria gonorrhoeae; Neisseria gonorrhoeae, strain MMX 6797, CIP, TET, by Micromyx
  MIC: 0.14 µg/mL (≈ 0.414 µM)
Neisseria gonorrhoeae; Neisseria gonorrhoeae, strain MMX 6803, CIP, by Micromyx
  MIC: 0.27 µg/mL (≈ 0.798 µM)
Neisseria gonorrhoeae; Neisseria gonorrhoeae, strain MMX 6812, CIP, by Micromyx
  MIC: 0.27 µg/mL (≈ 0.798 µM)
Neisseria gonorrhoeae; Neisseria gonorrhoeae, strain MMX 6818, CIP, by Micromyx
  MIC: 0.27 µg/mL (≈ 0.798 µM)
Neisseria gonorrhoeae; Neisseria gonorrhoeae, strain MMX 6819, CIP, by Micromyx
  MIC: 0.14 µg/mL (≈ 0.414 µM)
Neisseria gonorrhoeae; Neisseria gonorrhoeae, strain MMX 6879, by Micromyx
  MIC: 0.14 µg/mL (≈ 0.414 µM)
Neisseria gonorrhoeae; Neisseria gonorrhoeae, strain MMX 6921, CIP, by Micromyx
  MIC: 0.53 µg/mL (≈ 1.57 µM)
Neisseria gonorrhoeae; Neisseria gonorrhoeae, strain MMX 6922, CIP, by Micromyx
  MIC: 0.53 µg/mL (≈ 1.57 µM)
Neisseria gonorrhoeae; Neisseria gonorrhoeae, strain MMX 6983, CIP, by Micromyx
  MIC: 0.53 µg/mL (≈ 1.57 µM)
Neisseria gonorrhoeae; Neisseria gonorrhoeae, strain MMX 6989, by Micromyx
  MIC: 0.14 µg/mL (≈ 0.414 µM)
Neisseria gonorrhoeae; Neisseria gonorrhoeae, strain MMX 6990, CIP, by Micromyx
  MIC: 0.14 µg/mL (≈ 0.414 µM)
Neisseria gonorrhoeae; Neisseria gonorrhoeae, strain MMX 6992, by Micromyx
  MIC: 0.14 µg/mL (≈ 0.414 µM)
Neisseria gonorrhoeae; Neisseria gonorrhoeae, strain MMX 6996, by Micromyx
  MIC: 0.27 µg/mL (≈ 0.798 µM)
Neisseria gonorrhoeae; Neisseria gonorrhoeae, strain MMX 6998, CIP, by Micromyx
  MIC: 0.53 µg/mL (≈ 1.57 µM)
Neisseria gonorrhoeae; Neisseria gonorrhoeae, strain MMX 7002, CIP, by Micromyx
  MIC: 0.27 µg/mL (≈ 0.798 µM)
Neisseria gonorrhoeae; Neisseria gonorrhoeae, strain MMX 7005, by Micromyx
  MIC: 0.03 µg/mL (≈ 0.0887 µM)
Neisseria gonorrhoeae; Neisseria gonorrhoeae, strain WHO F
  MIC: 0.06 µg/mL (≈ 0.177 µM)
Neisseria gonorrhoeae; Neisseria gonorrhoeae, strain WHO F, replicates 1-3
  MIC: 0.066 µg/mL (≈ 0.195 µM)
Neisseria gonorrhoeae; Neisseria gonorrhoeae, strain WHO G, PEN, TET
  MIC: 0.13 µg/mL (≈ 0.384 µM)
Neisseria gonorrhoeae; Neisseria gonorrhoeae, strain WHO G, replicates 1-3
  MIC: 0.132 µg/mL (≈ 0.39 µM)
Neisseria gonorrhoeae; Neisseria gonorrhoeae, strain WHO K, CIP, PEN, TET
  MIC: 0.26 µg/mL (≈ 0.768 µM)
Neisseria gonorrhoeae; Neisseria gonorrhoeae, strain WHO K, replicates 1-3
  MIC: 0.264 µg/mL (≈ 0.78 µM)
Neisseria gonorrhoeae; Neisseria gonorrhoeae, strain WHO L, CIP, PEN, TET
  MIC: 0.26 µg/mL (≈ 0.768 µM)
Neisseria gonorrhoeae; Neisseria gonorrhoeae, strain WHO L, replicates 1-3
  MIC: 0.264 µg/mL (≈ 0.78 µM)
Neisseria gonorrhoeae; Neisseria gonorrhoeae, strain WHO M, CIP, PEN, TET
  MIC: 0.13 µg/mL (≈ 0.384 µM)
Neisseria gonorrhoeae; Neisseria gonorrhoeae, strain WHO M, replicates 1-3
  MIC: 0.132 µg/mL (≈ 0.39 µM)
Neisseria gonorrhoeae; Neisseria gonorrhoeae, strain WHO N, CIP, PEN, TET
  MIC: 0.26 µg/mL (≈ 0.768 µM)
Neisseria gonorrhoeae; Neisseria gonorrhoeae, strain WHO N, replicates 1-3
  MIC: 0.264 µg/mL (≈ 0.78 µM)
Neisseria gonorrhoeae; Neisseria gonorrhoeae, strain WHO O, PEN, TET
  MIC: 0.13 µg/mL (≈ 0.384 µM)
Neisseria gonorrhoeae; Neisseria gonorrhoeae, strain WHO O, replicates 1-3
  MIC: 0.132 µg/mL (≈ 0.39 µM)
Neisseria gonorrhoeae; Neisseria gonorrhoeae, strain WHO P, PEN, TET
  MIC: 0.33 µg/mL (≈ 0.975 µM)
Neisseria gonorrhoeae; Neisseria gonorrhoeae, strain WHO U, PEN, TET
  MIC: 0.13 µg/mL (≈ 0.384 µM)
Neisseria gonorrhoeae; Neisseria gonorrhoeae, strain WHO U, replicates 1-3
  MIC: 0.132 µg/mL (≈ 0.39 µM)
Neisseria gonorrhoeae; Neisseria gonorrhoeae, strain WHO V, AZM, CIP, PEN, TET
  MIC: 0.26 µg/mL (≈ 0.768 µM)
Neisseria gonorrhoeae; Neisseria gonorrhoeae, strain WHO V, replicates 1-3
  MIC: 0.264 µg/mL (≈ 0.78 µM)
Neisseria gonorrhoeae; Neisseria gonorrhoeae, strain WHO W, CIP, PEN, TET
  MIC: 0.13 µg/mL (≈ 0.384 µM)
Neisseria gonorrhoeae; Neisseria gonorrhoeae, strain WHO W, replicates 1-3
  MIC: 0.132 µg/mL (≈ 0.39 µM)
Neisseria gonorrhoeae; Neisseria gonorrhoeae, strain WHO X, CIP, PEN, TET
  MIC: 0.21 µg/mL (≈ 0.621 µM)
Neisseria gonorrhoeae; Neisseria gonorrhoeae, strain WHO X, replicates 1-3
  MIC: 0.132 µg/mL (≈ 0.39 µM)
Neisseria gonorrhoeae; Neisseria gonorrhoeae, strain WHO Y, CIP, PEN, TET
  MIC: 0.21 µg/mL (≈ 0.621 µM)
Neisseria gonorrhoeae; Neisseria gonorrhoeae, strain WHO Y, replicates 1-3
  MIC: 0.264 µg/mL (≈ 0.78 µM)
Neisseria gonorrhoeae; Neisseria gonorrhoeae, strain WHO Z, CIP, PEN, TET
  MIC: 0.26 µg/mL (≈ 0.768 µM)
Neisseria gonorrhoeae; Neisseria gonorrhoeae, strain WHO Z, replicates 1-3
  MIC: 0.264 µg/mL (≈ 0.78 µM)
Neisseria gonorrhoeae; strain ATCC 49226, replicates 1-3
  MIC: 0.169 µg/mL and 0.085 µg/mL
Neisseria gonorrhoeae; strain ATCC 700719, replicates 1-3
  MIC: 0.169 µg/mL and 0.338 µg/mL
Neisseria gonorrhoeae; strain ATCC 700825, replicates 1-3
  MIC: 0.042 µg/mL (≈ 0.124 µM)
Neisseria gonorrhoeae; strain BAA-1846, replicates 1-3
  MIC: 0.042 µg/mL (≈ 0.124 µM)
Neisseria gonorrhoeae; strain CDC-0165, replicates 1-3
  MIC: 0.677 µg/mL (≈ 2 µM)
Neisseria gonorrhoeae; strain CDC-0166, replicates 1-3
  MIC: 0.169 µg/mL (≈ 0.499 µM)
Neisseria gonorrhoeae; strain CDC-0167, replicates 1-3
  MIC: 0.169 µg/mL and 0.085 µg/mL
Neisseria gonorrhoeae; strain CDC-0169, replicates 1-3
  MIC: 0.169 µg/mL (≈ 0.499 µM)
Neisseria gonorrhoeae; strain CDC-0170, replicates 1-3
  MIC: 0.169 µg/mL (≈ 0.499 µM)
Neisseria gonorrhoeae; strain CDC-0171, replicates 1-3
  MIC: 0.169 µg/mL (≈ 0.499 µM)
Neisseria gonorrhoeae; strain CDC-0172, replicates 1-3
  MIC: 0.169 µg/mL (≈ 0.499 µM)
Neisseria gonorrhoeae; strain CDC-0173, replicates 1-3
  MIC: 0.169 µg/mL (≈ 0.499 µM)
Neisseria gonorrhoeae; strain CDC-0174, replicates 1-3
  MIC: 0.169 µg/mL (≈ 0.499 µM)
Neisseria gonorrhoeae; strain CDC-0175, replicates 1-3
  MIC: 0.085 µg/mL (≈ 0.251 µM)
Neisseria gonorrhoeae; strain CDC-0176, replicates 1-3
  MIC: 0.338 µg/mL (≈ 0.999 µM)
Neisseria gonorrhoeae; strain CDC-0177, replicates 1-3
  MIC: 0.169 µg/mL (≈ 0.499 µM)
Neisseria gonorrhoeae; strain CDC-0178, replicates 1-3
  MIC: 0.338 µg/mL (≈ 0.999 µM)
Neisseria gonorrhoeae; strain CDC-0179, replicates 1-3
  MIC: 0.085 µg/mL (≈ 0.251 µM)
Neisseria gonorrhoeae; strain CDC-0180, replicates 1-3
  MIC: 0.169 µg/mL (≈ 0.499 µM)
Neisseria gonorrhoeae; strain CDC-0181, replicates 1-3
  MIC: 0.169 µg/mL (≈ 0.499 µM)
Neisseria gonorrhoeae; strain CDC-0182, replicates 1-3
  MIC: 0.169 µg/mL (≈ 0.499 µM)
Neisseria gonorrhoeae; strain CDC-0183, replicates 1-3
  MIC: 0.338 µg/mL (≈ 0.999 µM)
Neisseria gonorrhoeae; strain CDC-0184, replicates 1-3
  MIC: 0.169 µg/mL (≈ 0.499 µM)
Neisseria gonorrhoeae; strain CDC-0185, replicates 1-3
  MIC: 0.338 µg/mL and 0.169 µg/mL
Neisseria gonorrhoeae; strain CDC-0186, replicates 1-3
  MIC: 0.169 µg/mL (≈ 0.499 µM)
Neisseria gonorrhoeae; strain CDC-0187, replicates 1-3
  MIC: 0.338 µg/mL (≈ 0.999 µM)
Neisseria gonorrhoeae; strain CDC-0188, replicates 1-3
  MIC: 0.169 µg/mL (≈ 0.499 µM)
Neisseria gonorrhoeae; strain CDC-0189, replicates 1-3
  MIC: 0.085 µg/mL and 0.169 µg/mL
Neisseria gonorrhoeae; strain CDC-0190, replicates 1-3
  MIC: 0.169 µg/mL (≈ 0.499 µM)
Neisseria gonorrhoeae; strain HO41, replicates 1-3
  MIC: 0.169 µg/mL (≈ 0.499 µM)
Neisseria gonorrhoeae; strain WHO F, replicates 1-3
  MIC: 0.066 µg/mL (≈ 0.195 µM)
Neisseria gonorrhoeae; strain WHO G, replicates 1-3
  MIC: 0.132 µg/mL (≈ 0.39 µM)
Neisseria gonorrhoeae; strain WHO K, replicates 1-3
  MIC: 0.264 µg/mL (≈ 0.78 µM)
Neisseria gonorrhoeae; strain WHO L, replicates 1-3
  MIC: 0.264 µg/mL (≈ 0.78 µM)
Neisseria gonorrhoeae; strain WHO M, replicates 1-3
  MIC: 0.132 µg/mL (≈ 0.39 µM)
Neisseria gonorrhoeae; strain WHO N, replicates 1-3
  MIC: 0.264 µg/mL (≈ 0.78 µM)
Neisseria gonorrhoeae; strain WHO O, replicates 1-3
  MIC: 0.132 µg/mL (≈ 0.39 µM)
Neisseria gonorrhoeae; strain WHO P, replicates 1-3
  MIC: 0.529 µg/ml and 0.264 µg/ml (2×)
Neisseria gonorrhoeae; strain WHO U, replicates 1-3
  MIC: 0.132 µg/mL (≈ 0.39 µM)
Neisseria gonorrhoeae; strain WHO V, replicates 1-3
  MIC: 0.264 µg/mL (≈ 0.78 µM)
Neisseria gonorrhoeae; strain WHO W, replicates 1-3
  MIC: 0.132 µg/mL (≈ 0.39 µM)
Neisseria gonorrhoeae; strain WHO X, replicates 1-3
  MIC: 0.264 µg/mL (≈ 0.78 µM)
Neisseria gonorrhoeae; strain WHO Y, replicates 1-3
  MIC: 0.132 µg/mL and 0.264 µg/mL
Neisseria gonorrhoeae; strain WHO Z, replicates 1-3
  MIC: 0.264 µg/mL (≈ 0.78 µM)
[1]; Replicate 1/2
  Serum binding (% bound) Murine: 99.9% and 95.5%
[1]; Average Value
  fraction unbound: 0.023
[1]; Reported value
  fraction unbound: 0.02
Solubility (formulated)
  Solubility: 5000 µg/mL (≈ 14800 µM)
[2]
  Solubility: 100 µM (≈ 33.8 µg/mL)
